Data: US8222434B1, “Bactobolin analog and synthesis method thereof” (priority 2009, dated 2012)
“Also recorded” adds a separate entry of the source.

What was measured:
[1] = test system: B. thailandensis JBT112; assay type: cell-based, Burkholderia thailandensis
[2] = test system: BtaR2; assay type: cell-based, B. thailandensis; details: 3 h
[3] = test system: BtaR2; assay type: cell-based, B. thailandensis
[4] = test system: B. subtilis; assay type: cell-based, Bacillus subtilis; details: disc soaked in sterile medium containing 2 μM 3OHC10-HSL; B. subtilis lawn
[5] = test system: S. aureus COL (MRSA); assay: CLSI microtiter MIC assay; assay type: cell-based, Staphylococcus aureus; details: for Minimum Inhibitory Concentration (MIC): S. aureus COL (MRSA), 24 hours at 35° C., average from two independent experiments
Experimental: (§1) To test the potency of bactobolins, antibiotic assays were carried out against the human pathogens MRSA, VRE and V. parahaemo-lyticus, and against B. subtilis and E. coli (Table 3-C).
(§2) The minimum inhibitory concentrations (MIC) of each bactobolin was determined according to the 2003 guidelines of the Clinical and Laboratory Standards Institute (CLSI, formerly NCCLS) using the microtiter MIC method. Inocula for each test organism were prepared by suspending a colony from an LB agar plate into Tryptic Soy Broth and growing for 3-5 hours at 35° C. with shaking, then adjusting the culture turbidity in PBS to the equivalent of a 1.0 McFarland Standard (3×10^8 CFU/ml). These cell suspensions were used as inocula for microtiter MIC assays. 2.5 μL inoculum, which corresponded to 1×10^6 cells, was added to a 200 μL well containing each bactobolin diluted in cation-adjusted Mueller-Hinton II broth (actual CFU/ml ranged from 5×104 to 1×106), and these were incubated without shaking for 24 hours at 35° C. The MIC was defined as the lowest concentration of bactobolin (μg/ml) in which bacterial growth in the well was not measurable by determining the turbidity at 595 nm (A595) on a 96-well plate reader. See Table S8 for strains used in these assays.

[6] = test system: E. coli ATCC25922; assay: CLSI microtiter MIC assay; assay type: cell-based, Escherichia coli; details: 24 hours at 35° C., average from two independent experiments
Experimental: as §1, §2

[7] = test system: B. subtilis 3610; assay: CLSI microtiter MIC assay; assay type: cell-based, Bacillus subtilis; details: 24 hours at 35° C., average from two independent experiments
Experimental: as §1, §2

[8] = test system: E. faecalis V583 (VRE); assay: CLSI microtiter MIC assay; assay type: cell-based, Enterococcus faecalis; details: 24 hours at 35° C., average from two independent experiments
Experimental: as §1, §2

[9] = test system: V. parahaemolyticus LM5674; assay: CLSI microtiter MIC assay; assay type: cell-based, Vibrio parahaemolyticus
Experimental: as §1, §2

[10] = test system: MRSA, VRE and V. parahaemo-lyticus, B. subtilis and E. coli; assay: Antibiotic assays of bactobolins, overall comparison; assay type: cell-based; details: comparison over Table 3-C strains
Experimental: as §1, §2

[11] = test system: E. coli; details: relative to bactobolin; cited from earlier work
[12] = test system: tumor; details: relative to bactobolin; cited from earlier work
[13] = test system: translation; details: relative to bactobolin; cited from earlier work
[14] = test system: B. thailandensis ΔbtaI1, I2, I3 (JBT112); assay type: cell-based, Burkholderia thailandensis
[15] = test system: B. thailandensis ΔbtaT (BD44); assay type: cell-based, Burkholderia thailandensis
[16] = test system: B. thailandensis E264 (wt); assay type: cell-based, Burkholderia thailandensis

Compound | Restoration of antibiotic production in JBT112 [1] | Activation of btaI2-lacZ transcription [2] | Minimum Inhibitory Concentration (MIC) [5] | Minimum Inhibitory Concentration (MIC) [6] | Minimum Inhibitory Concentration (MIC) [7] | Minimum Inhibitory Concentration (MIC) [8] | Relative potency among bactobolins [10] | further results
CCCCCC(O)CC(=O)N[C@H]1CCOC1=O (stereo partly shown) [Bactobolin 3OHC8-HSL] | requires exogenous 3OHC8-HSL or 3OHC10-HSL for antibiotic production | Activation |  |  |  |  |  | BtaR2-dependent induction of lacZ (1233 promoter) [3]: sufficient for BtaR2-dependent induction of lacZ
CCCCCCCC(O)CC(=O)N[C@H]1CCOC1=O (stereo partly shown) [Bactobolin 3OHC10-HSL] | requires exogenous 3OHC8-HSL or 3OHC10-HSL for antibiotic production | Activation |  |  |  |  |  | antibiotic activity of acyl-HSL alone, diffusion disc [4]: not an antimicrobial molecule; also recorded: does not have antibiotic activity; BtaR2-dependent induction of lacZ (1233 promoter) [3]: sufficient for BtaR2-dependent induction of lacZ
CCCCCCCC(=O)N[C@H]1CCOC1=O [Bactobolin C8-HSL] | unable to restore antibiotic production | no detectable response |  |  |  |  |  | 
CCCCCCCCCC(=O)N[C@H]1CCOC1=O [Bactobolin C10-HSL, N-decanoyl-HSL] |  | response |  |  |  |  |  | 
CCCCCCCCCCCC(=O)N[C@H]1CCOC1=O [Bactobolin C12-HSL, N-dodecanoyl-HSL] |  | response |  |  |  |  |  | 
C[C@@H](N)C(=O)N[C@@H]1[C@@H]2C[C@H](O)CC(O)=C2C(=O)O[C@]1(C)C(Cl)Cl [Bactobolin C] |  |  | 6.25 µg/mL | 25 µg/mL | 12.5 µg/mL | >25 µg/mL |  | Antibiotic effectiveness in words ([5]; MRSA): effective against these strains, though to a lesser extent; Antibiotic effectiveness in words ([9]; V. parahaemolyticus): effective against these strains, though to a lesser extent; Minimum Inhibitory Concentration (MIC) ([9]; V. parahaemolyticus LM5674, 24 hours at 35° C., average from two independent experiments): 1.56 µg/mL
C[C@H](N)C(=O)N[C@@H](C)C(=O)N[C@@H]1[C@@H]2C[C@H](O)CC(O)=C2C(=O)O[C@]1(C)C(Cl)Cl [Bactobolin D] |  |  | 37.5 µg/mL | >100 µg/mL | 100 µg/mL |  | weakest analog | 
C[C@H](N)C(=O)N[C@@H]1[C@H]2C(=C(O)C[C@@H](O)[C@@H]2O)C(=O)O[C@@H]1C [actinobolin] |  |  |  |  |  |  |  | less active than bactobolin, E. coli kill-assays [11]: 21 fold; less active than bactobolin, murine antitumor activity [12]: 900 fold; less active than bactobolin, in vitro inhibition of translation [13]: 1000 fold
Bactobolin A |  |  | 0.78 µg/mL | 6.25 µg/mL | 1.56 µg/mL | >25 µg/mL | more potent than bactobolins C and D | 
Bactobolin B |  |  |  | 1.56 µg/mL | 0.39 µg/mL | 25 µg/mL | more potent than bactobolins C and D | Bactobolin B MIC [14]: >25 µg/mL; Bactobolin B MIC [15]: >25 µg/mL; Bactobolin B MIC [16]: >25 µg/mL
